Assay results taken from patent US11352350B2, “IRAK degraders and uses thereof” (Kymera Therapeutics, Inc., priority 2018, dated 2022).

Key:
IRAK4 [1] = molecular target: T1, IRAK4 (Homo sapiens (Human), UniProt Q9NWZ3); assay: hPBMC IRAK4 degradation flow assay; type: cell-based; settings: hPBMC monocyte
Outline: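 Thawed human PBMCs treated with 10-point, 5-fold compound dilutions (0.1% DMSO) at 37° C. for 20 hours or 4 hours. IRAK4 measured by flow MFI in CD14+ monocytes and CD14− lymphocytes, normalized to DMSO and 10 μM 20-hour control; DC50 and max degradation from 4-parameter logistic fit.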

IRAK4 [2] = molecular target: T1, IRAK4; assay: IRAK4 MSD degradation in OCI-LY10; type: cell-based
Outline: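 OCI-LY10 cells treated with 8-point 1:3 dilutions (top 1 to 10 μM final) for 4 to 24 h at 37° C. Lysate IRAK4 measured by MSD sandwich immunoassay (2H9 capture, Y279 detection, SULFO-TAG anti-rabbit). DC50 from three-parameter logistic fit.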

OCI-LY10 = assay: CTG Cell Viability Assay - OCI-LY10; type: cell-based, human; settings: Homo sapiens, OCI-Ly10, 96 h, OCI-LY10, 4 days; read-out: CTG Cell Viability Assay - OCI-LY10: Average external-IC50
Outline: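 OCI-LY10 cells exposed to 9-dose, 1:3 dilutions from 10 μM top (0.2% DMSO) for 4 days at 37° C, 5% CO2. Viability by CellTiter-Glo luminescence; IC50 from three-parameter logistic fit.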

IL-6 = IL-6 secretion in hPBMC using R848 stimulation; type: cell-based, human; settings: Homo sapiens, 20 h, hPBMC, R848 as stim, t = 20 h
[3] = 20 hrs, read-out: IRAK4 degradation in hPBMC monocyte: DC50
[4] = OCI-LY10, 4 hrs, read-out: IRAK4 MSD degradation in OCI-LY10 at 4 hrs: DC50
[5] = 20 hr, flow assay, read-out: IRAK4 degradation in hPBMC monocyte at 20 hr: Average external Abs DC50
[6] = OCI-LY10, 4 hrs, MSD, read-out: IRAK4 MSD degradation in OCI-LY10 at 4 hrs: Average external-Abs DC50

T1 sequence (Q9NWZ3 whole entry): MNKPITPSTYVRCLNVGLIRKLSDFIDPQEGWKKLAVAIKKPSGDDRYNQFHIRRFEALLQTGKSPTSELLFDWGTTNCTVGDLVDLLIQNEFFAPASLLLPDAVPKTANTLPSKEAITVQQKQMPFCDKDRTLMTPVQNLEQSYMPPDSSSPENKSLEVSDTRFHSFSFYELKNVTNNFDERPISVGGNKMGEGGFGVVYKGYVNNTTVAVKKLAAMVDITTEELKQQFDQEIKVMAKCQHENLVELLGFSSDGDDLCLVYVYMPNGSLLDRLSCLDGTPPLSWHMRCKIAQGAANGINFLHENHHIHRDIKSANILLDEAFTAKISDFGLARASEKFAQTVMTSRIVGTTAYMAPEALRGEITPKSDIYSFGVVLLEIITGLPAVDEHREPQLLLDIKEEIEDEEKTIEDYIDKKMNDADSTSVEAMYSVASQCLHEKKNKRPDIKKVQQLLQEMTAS

SMILES | DC50 (IRAK4 [1]; [3]) [nM] | DC50 (IRAK4 [2]; [4]) [nM] | IC50 (OCI-LY10) [nM] | IC50 (IL-6) [nM] | DC50 (IRAK4 [1]; [5]) [nM] | DC50 (IRAK4 [2]; [6]) [nM] | DC50 (IRAK4 [2]; OCI-LY10, 24 hrs, MSD, read-out: IRAK4 MSD degradation in OCI-LY10 at 24 hrs: Average external-Abs DC50) [nM]
Cn1c(=O)n(C2CCC(=O)NC2=O)c2cccc(C#CCCCNC[C@H]3CC[C@H](n4cc(NC(=O)c5cnn6ccc(N7C[C@H]8C[C@@H]7CO8)nc56)c(C(F)F)n4)CC3)c21 (stereo partly drawn) [I-518, N-[3-(difluoromethyl)-1-[4-[[5-[1-(2,6-dioxo-3-piperidyl)-3-methyl-2-oxo-benzimidazol-4-yl]pent-4-ynylamino]methyl]cyclohexyl]pyrazol-4-yl]-5-[(1R)-2-oxa-5-azabicyclo[2.2.1]heptan-5-yl]pyrazolo[1,5-a]pyrimidine-3-carboxamide] | < 10 | 10 to 100 | > 1000 | 1 to 10 | – | – | –
Cn1c(=O)n(C2CCC(=O)NC2=O)c2cccc(CCC3CCN(C[C@H]4CC[C@H](n5cc(NC(=O)c6cnn7ccc(N8C[C@H]9C[C@@H]8CO9)nc67)c(C(F)F)n5)CC4)CC3)c21 (some centres unmarked) [I-487] | < 10 | 10 to 100 | > 1000 | < 1 | – | – | –
Cn1c(=O)n(C2CCC(=O)NC2=O)c2cccc(CCCC3CCN(C[C@H]4CC[C@H](n5cc(NC(=O)c6cnn7ccc(N8CCOC(C)(C)C8)nc67)c(C(F)F)n5)CC4)CC3)c21 (some centres unmarked) [I-525] | < 10 | 10 to 100 | > 1000 | < 1 | – | – | –
Cc1ccc(-c2nn([C@H]3CC[C@H](CN4CCC5(CC4)CN(CCCc4cccc6c4n(C)c(=O)n6C4CCC(=O)NC4=O)C5)CC3)cc2NC(=O)c2cnn3cccnc23)nc1 (some centres unmarked) [I-509] | 10 to 100 | 10 to 100 | > 1000 | 1 to 10 | – | – | –
Cn1c(=O)n(C2CCC(=O)NC2=O)c2cccc(CCCN3CCOC4(CCN(C(=O)c5ccc(-n6cc(NC(=O)c7cnn8ccc(N9C[C@H]%10C[C@@H]9CO%10)nc78)c(C(F)F)n6)cc5)CC4)C3)c21 (some centres unmarked) [I-424] | – | – | > 1000 | 1 to 10 | < 10 | < 10 | –
Cn1c(=O)n(C2CCC(=O)NC2=O)c2cccc(CCC(=O)C3CC4(CCN(C[C@H]5CC[C@H](n6cc(NC(=O)c7cnn8ccc(N9C[C@H]%10C[C@@H]9CO%10)nc78)c(C(F)F)n6)CC5)CC4)C3)c21 (some centres unmarked) [I-415] | – | – | > 1000 | < 1 | < 10 | < 10 | –
Cn1c(=O)n(C2CCC(=O)NC2=O)c2cccc(C#CCN3CCC4(CC3)CN(C[C@H]3CC[C@H](n5cc(NC(=O)c6cnn7ccc(N8C[C@H]9C[C@@H]8CO9)nc67)c(C(F)F)n5)CC3)C4)c21 (some centres unmarked) [I-485] | < 10 | 10 to 100 | > 1000 | 1 to 10 | – | – | –
Cn1c(=O)n(C2CCC(=O)NC2=O)c2cccc(CC3CC4(CCN(C(=O)c5ccc(-n6cc(NC(=O)c7cnn8ccc(N9C[C@H]%10C[C@@H]9CO%10)nc78)c(C(F)F)n6)cc5)CC4)C3)c21 (some centres unmarked) [I-423] | – | – | > 1000 | 1 to 10 | < 10 | 100 to 1000 | –
Cn1c(=O)n(C2CCC(=O)NC2=O)c2cccc(CN3CCC(OC4CCN(C[C@H]5CC[C@H](n6cc(NC(=O)c7cnn8ccc(N9C[C@H]%10C[C@@H]9CO%10)nc78)c(C(F)F)n6)CC5)CC4)CC3)c21 (some centres unmarked) [I-513] | < 10 | < 10 | > 1000 | < 1 | – | – | –
CN(CC1CCN(c2cccc3c2C(=O)N(C2CCC(=O)NC2=O)C3=O)CC1)C[C@H]1CC[C@H](n2cc3cc(NC(=O)c4cccc(C(F)(F)F)n4)c(C(C)(C)O)cc3n2)CC1 (some centres unmarked) [I-317] | – | – | > 1000 | 1 to 10 | 10 to 100 | 10 to 100 | 10 to 100
Cn1c(=O)n(C2CCC(=O)NC2=O)c2cccc(CN3C[C@H]4CC[C@@H](C3)N4CC[C@H]3CC[C@H](n4cc(NC(=O)c5cnn6ccc(N7C[C@H]8C[C@@H]7CO8)nc56)c(C(F)F)n4)CC3)c21 (some centres unmarked) [I-511] | < 10 | 10 to 100 | > 1000 | 1 to 10 | – | – | –
Cn1c(=O)n(C2CCC(=O)NC2=O)c2cccc(C#CCCCOCc3ccc(-n4cc(NC(=O)c5cnn6ccc(N7C[C@H]8C[C@@H]7CO8)nc56)c(C(F)F)n4)cc3)c21 (stereo partly drawn) [I-498, N-[3-(difluoromethyl)-1-[4-[5-[1-(2,6-dioxo-3-piperidyl)-3-methyl-2-oxo-benzimidazol-4-yl]pent-4-ynoxymethyl]phenyl]pyrazol-4-yl]-5-[(1R,4R)-2-oxa-5-azabicyclo [2.2.1]heptan-5-yl] pyrazolo[1,5-a]pyrimidine-3-carboxamide] | 100 to 1000 | 100 to 1000 | > 1000 | 10 to 100 | – | – | –
CN1C(=O)C(C2CCC(=O)NC2=O)c2cc(CCCOC3CCN(C[C@H]4CC[C@H](C5N=C(NC(=O)c6cnn7ccc(N8C[C@H]9C[C@@H]8CO9)nc67)C(C(F)F)=N5)CC4)CC3)ccc21 (some centres unmarked) [I-553] | 10 to 100 | 100 to 1000 | > 1000 | 1 to 10 | – | – | –
